Experimental findings from patent US8492559B2, “Substituted indole compounds” (Gruenenthal GmbH, priority 2009, dated 2013) are described below.

One test concerns the target T1, B1R receptor of the rat (rB1R) (Rattus norvegicus, UniProt P97583).
T1 construct: expressed in transfected cells; host or cells: CHO K1 cells
T1 sequence (P97583 1-337): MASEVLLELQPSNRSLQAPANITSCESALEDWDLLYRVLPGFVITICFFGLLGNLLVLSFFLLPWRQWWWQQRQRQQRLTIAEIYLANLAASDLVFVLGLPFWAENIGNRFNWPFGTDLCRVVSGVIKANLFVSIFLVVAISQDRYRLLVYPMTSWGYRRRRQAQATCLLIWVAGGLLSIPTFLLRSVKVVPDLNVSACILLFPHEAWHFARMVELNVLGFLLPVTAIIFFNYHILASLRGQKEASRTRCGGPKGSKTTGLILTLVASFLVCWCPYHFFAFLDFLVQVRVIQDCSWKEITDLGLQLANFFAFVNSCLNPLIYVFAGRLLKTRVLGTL
Put plainly: Functional investigation on the bradykinin 1 receptor (B1R), FLIPR Ca2+ assay, rB1R cells. The test is classed as cell-based. Conditions: 10 μM test substance; CHO K1 cells with rat B1R; agonist Des-Arg9 bradykinin; % of maximum achievable inhibition; 10 µM. Summed up:
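Cells plated at 20,000-35,000/well, incubated overnight at 37° C, loaded with Fluo-4 (2.13 μM, 60 min, 37° C, or 2.5 μM in buffer A), then read in FLIPR (λex 488, λem 540 nm). Agonist: Lys-Des-[MUT] bradykinin (0.5 nM) or Des-[MUT] bradykinin (100 nM). IC50 from % inhibition versus maximum, n=2-3, N>=2.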
On to `COc1cc(C)c(S(=O)(=O)Nc2cccc3ccn(CC(=O)N4CCC5(CC4)CCN(c4ccncc4)CC5)c23)c(C)c1` [Compound G-05, 4-Methoxy-2,6-dimethyl-N-[1-[2-oxo-2-(9-pyridin-4-yl-3,9-diazaspiro[5.5]undecan-3-yl)-ethyl]-1H-indol-7-yl]-benzenesulfonic acid amide], for which the “B1R antagonism, rat [10 μM] % inhibition” value worked out at 96%.
Still for that read-out and setting: with `O=C(CCn1ccc2ccc(N3Cc4cccc(Cl)c4C3=O)cc21)N1CCC2(CC1)CCN(c1ccncc1)CC2` [G_CC-67, 7-Chloro-2-[1-[3-oxo-3-(3-pyridin-4-yl-3,9-diazaspiro[5.5]undecan-9-yl)-propyl]-1H-indol-6-yl]-2,3-dihydro-isoindol-1-one] the figure was 95%.

The test is the same for the next values; noted with them: CHO-K1, 10 μM test substance; CHO K1 cells with rat B1R; agonist Des-Arg9 bradykinin; % of maximum achievable inhibition; read-out: B1R antagonism, rat [10 μM] % inhibition.
Broadly, the inhibition is the drop in the measured response relative to a control, in per cent. As for `COc1cc(C)c(S(=O)(=O)Nc2ccc3ccn(CC(=O)N4CCC(N5CCN(C)CC5)CC4)c3c2)c(C)c1` [G_CC-2, 4-Methoxy-2,6-dimethyl-N-[1-[2-[4-(4-methyl-piperazin-1-yl)-piperidin-1-yl]-2-oxo-ethyl]-1H-indol-6-yl]-benzenesulfonic acid amide], the inhibition at 10 µM stood at 70%.
Regarding `O=C(CCn1ccc2ccc(N3Cc4cccc(Cl)c4C3=O)cc21)N1CCC2(CC1)CCN(c1ccncc1)CC2` [Compound G-07, 7-Chloro-2-[1-[3-oxo-3-(9-pyridin-4-yl-3,9-diazaspiro[5.5]undecan-3-yl)-propyl]-1H-indol-6-yl]-2,3-dihydro-isoindol-1-one], the inhibition at 10 µM is 100%.
In the case of `COc1cc(C)c(S(=O)(=O)Nc2cccc3ccn(CC(=O)N4CCC5(CCC(N6CCC6)CC5)CC4)c23)c(C)c1` [Compound G-18, N-(1-(2-(9-(azetidin-1-yl)-3-azaspiro[5.5]undecan-3-yl)-2-oxoethyl)-1H-indol-7-yl)-4-methoxy-2,6-dimethylbenzenesulfonic acid amide], the inhibition at 10 µM was 99%.
As to `O=C(Cn1ccc2ccc(N3CCn4c(c(Cl)c5ccccc54)C3=O)cc21)N1CCC2(CC1)CCN(c1ccncc1)CC2` [Compound G-31, 10-Chloro-2-[1-[2-oxo-2-(9-pyridin-4-yl-3,9-diazaspiro[5.5]undecan-3-yl)-ethyl]-1H-indol-6-yl]-3,4-dihydro-2H-pyrazino[1,2-a]indol-1-one], the inhibition at 10 µM is 54%.
With `COc1cc(C)c(S(=O)(=O)Nc2cccc3ccn(CC(=O)N4CCC5(CCN(c6ccncc6)CC5)C4)c23)c(C)c1` [Compound G-14, 4-Methoxy-2,6-dimethyl-N-(1-(2-oxo-2-(8-(pyridin-4-yl)-2,8-diazaspiro[4.5]decan-2-yl)ethyl)-1H-indol-7-yl)benzenesulfonic acid amide], the inhibition at 10 µM stood at 96%.
For `Cc1ccc2n1C(=O)N(c1ccc3ccn(CC(=O)N4CCC5(CC4)CCN(c4ccncc4)CC5)c3c1)C2` [Compound G-27, 5-Methyl-2-[1-[2-oxo-2-(9-pyridin-4-yl-3,9-diazaspiro[5.5]undecan-3-yl)-ethyl]-1H-indol-6-yl]-1,2-dihydro-pyrrolo[2,1-e]imidazol-3-one], the inhibition at 10 µM turned out to be 99%.
With `Cc1cc(S(=O)(=O)Nc2cccc3ccn(CCC(=O)N4CCN(CC5CCN(C)CC5)CC4)c23)c(C)cc1Cl` [G_CC-62, 4-Chloro-2,5-dimethyl-N-[1-[3-[4-[(1-methyl-piperidin-4-yl)-methyl]-piperazin-1-yl]-3-oxo-propyl]-1H-indol-7-yl]-benzenesulfonic acid amide], the inhibition at 10 µM turned out to be 99%.
For the compound `COc1cc(C)c(S(=O)(=O)Nc2ccc3ccn(CC(=O)N(C)CCCN4CCN(c5ccncc5)CC4)c3c2)c(C)c1` [G_CC-76, 2-[6-[[(4-Methoxy-2,6-dimethyl-phenyl)sulfonyl]amino]-1H-indol-1-yl]-N-methyl-N-[3-(4-pyridin-4-yl-piperazin-1-yl)-propyl]-acetamide], the inhibition at 10 µM was determined as 104%.
Take `Cc1cccc2c1C(=O)N(c1ccc3ccn(CC(=O)N4CCC5(CC4)CCN(c4ccncc4)CC5)c3c1)C2` [Compound G-26, 7-Methyl-2-[1-[2-oxo-2-(9-pyridin-4-yl-3,9-diazaspiro[5.5]undecan-3-yl)-ethyl]-1H-indol-6-yl]-2,3-dihydro-isoindol-1-one]: the inhibition at 10 µM turned out to be 102%.
In the case of `COc1cc(C)c(S(=O)(=O)Nc2cccc3ccn(CCC(=O)N4CCC5(CC4)CCN(c4ccncc4)CC5)c23)c(C)c1` [G_CC-54, 4-Methoxy-2,6-dimethyl-N-[1-[3-oxo-3-(3-pyridin-4-yl-3,9-diazaspiro[5.5]undecan-9-yl)-propyl]-1H-indol-7-yl]-benzenesulfonic acid amide], the inhibition at 10 µM was 96%.
As for `COc1cc(C)c(S(=O)(=O)Nc2cccc3ccn(CC(=O)N4CCC(OCCN5CCCC5)(c5cccnc5)CC4)c23)c(C)c1` [Compound G-06, 4-Methoxy-2,6-dimethyl-N-[1-[2-oxo-2-[4-pyridin-3-yl-4-(2-pyrrolidin-1-yl-ethoxy)-piperidin-1-yl]-ethyl]-1H-indol-7-yl]-benzenesulfonic acid amide], the inhibition at 10 µM was 70%.
Take `O=C(Cn1ccc2ccc(N3Cc4cccc(Cl)c4C3=O)cc21)N1CCC2(CCC(N3CC(F)(F)C3)CC2)CC1` [Compound G-20, 7-Chloro-2-(1-(2-(9-(3,3-difluoroazetidin-1-yl)-3-azaspiro[5.5]undecan-3-yl)-2-oxoethyl)-1H-indol-6-yl)isoindolin-1-one]: the inhibition at 10 µM is 13%.
Consider `O=C(Cn1ccc2ccc(N3Cc4cccc(Cl)c4C3=O)cc21)N1CCC2(CC1)CCN(c1ccncc1)CC2` [Compound G-08, 7-Chloro-2-[1-[2-oxo-2-(9-pyridin-4-yl-3,9-diazaspiro[5.5]undecan-3-yl)-ethyl]-1H-indol-6-yl]-2,3-dihydro-isoindol-1-one], for which the inhibition at 10 µM came to 97%.
Same read-out and setting: in the case of `O=C(Cn1ccc2ccc(N3Cc4cccc(Cl)c4C3=O)cc21)N1CCC2(CC1)CC(c1ccncc1)=NO2` [Compound G-15, 7-Chloro-2-(1-(2-oxo-2-(3-(pyridin-4-yl)-1-oxa-2,8-diazaspiro[4.5]dec-2-en-8-yl)ethyl)-1H-indol-6-yl)isoindolin-1-one] it was 54%; in that of `O=C(Cn1ccc2ccc(N3Cc4cccc(Cl)c4C3=O)cc21)N1CCC2(CCN(c3ccncc3)CC2)C1` [Compound G-12, 7-Chloro-2-(1-(2-oxo-2-(8-(pyridin-4-yl)-2,8-diazaspiro[4.5]decan-2-yl)ethyl)-1H-indol-6-yl)isoindolin-1-one], 92%; in that of `Cc1cc(S(=O)(=O)Nc2ccc3ccn(CC(=O)N4CCN(CC5CCN(C)CC5)CC4)c3c2)c(C)cc1Cl` [G_CC-8, 4-Chloro-2,5-dimethyl-N-[1-[2-[4-[(1-methyl-piperidin-4-yl)-methyl]-piperazin-1-yl]-2-oxo-ethyl]-1H-indol-6-yl]-benzenesulfonic acid amide], 100%.
